Legend:
[1] = test system: L1210 Leukemia; assay: L1210 Leukemia - Test 1 (survival of tumor-bearing mice); type: in vivo; settings: for Survivors Day 5(30): qd 1→9, in saline
[2] = test system: L1210 Leukemia; assay: L1210 Leukemia - Test 3 (vehicle comparison); type: in vivo, mice; settings: Day 1 only, vehicle Saline
[3] = test system: L-1210 Leukemia; assay: L-1210 Leukemia (Table VIII)
Description: The sodium and ammonium salts of the present invention were tested against transplantable mouse tumors as indicated below. The methodology used generally followed the protocols of the National Cancer Institute (Cancer Chemotherapy Rep., Part 3, 3, 1-103 (1972). The essential experimental details are given at the bottom of the following tables.

[4] = test system: Lewis Lung Carcinoma; assay: Lewis Lung Carcinoma - Test 1 (ip, delayed therapy); type: in vivo, mice
[5] = test system: B16 Melanoma; assay: B16 Melanoma - Test 2 (ip tumor brei); type: in vivo, mice; settings: QD +9
[6] = test system: B16 Melanoma; assay: B16 Melanoma - Test 1 (ip tumor brei); type: in vivo, mice; settings: for Av. Wt. Change, g Day 5 / Effect MST % T/C / MST Days / Survivors Day 5(60): QD 1→9, vehicle Saline

SMILES: N.N.[Cl][Pt][Cl] [Cis-DDP, cis-diammine dichloroplatinum (II)]
- Survivors Day 5(30) ([1]; 0.5 mg/kg/day ip): 6/6
- Survivors Day 5(30) ([1]; 2 mg/kg/day ip): 6/6
- Average Weight Change ([1]; 6 mg/kg/day ip, d. 1 only, in saline): −2.8
- Average Weight Change ([1]; 8 mg/kg/day ip, d. 1 only, in saline): −4.1
- Effect MST % T/C ([1]; 10 mg/kg/day ip, d. 1 only, in saline): 207 % T/C
- Average Weight Change ([2]; 4 mg/kg ip): −1.7
- Effect MST % T/C ([2]; 4 mg/kg ip): 143 % T/C
- MST Days ([2]; 4 mg/kg ip): 10.0 days
- Survivors Day 5 ([2]; 4 mg/kg ip): 6/6
- Average Weight Change ([2]; 6 mg/kg ip): −2.3
- Effect MST % T/C ([2]; 6 mg/kg ip): 143 % T/C
- MST Days ([2]; 6 mg/kg ip): 10.0 days
- Survivors Day 5 ([2]; 6 mg/kg ip): 6/6
- Average Weight Change ([2]; 8 mg/kg ip): −1.8
- Effect MST % T/C ([2]; 8 mg/kg ip): 150 % T/C
- MST Days ([2]; 8 mg/kg ip): 10.5 days
- Survivors Day 5 ([2]; 8 mg/kg ip): 6/6
- Average Weight Change ([2]; 10 mg/kg ip): −4.5
- Effect MST % T/C ([2]; 10 mg/kg ip): 150 % T/C
- MST Days ([2]; 10 mg/kg ip): 10.5 days
- Survivors Day 5 ([2]; 10 mg/kg ip): 6/6
- Average Weight Change,g ([3]; 0.4 mg/kg/inj ip, qd 1→9): +0.8 g
- Effect MST % T/C ([3]; 0.4 mg/kg/inj ip, qd 1→9): 117 % T/C
- MST Days ([3]; 0.4 mg/kg/inj ip, qd 1→9): 7.0 days
- Survivors Day 5(30) ([3]; 0.4 mg/kg/inj ip, qd 1→9): 6/6
- Average Weight Change,g ([3]; 0.8 mg/kg/inj ip, qd 1→9): -0.8 g
- Effect MST % T/C ([3]; 0.8 mg/kg/inj ip, qd 1→9): 133 % T/C
- MST Days ([3]; 0.8 mg/kg/inj ip, qd 1→9): 8.0 days
- Survivors Day 5(30) ([3]; 0.8 mg/kg/inj ip, qd 1→9): 6/6
- Average Weight Change,g ([3]; 1.6 mg/kg/inj ip, qd 1→9): -2.5 g
- Effect MST % T/C ([3]; 1.6 mg/kg/inj ip, qd 1→9): 200 % T/C
- MST Days ([3]; 1.6 mg/kg/inj ip, qd 1→9): 12.0 days
- Survivors Day 5(30) ([3]; 1.6 mg/kg/inj ip, qd 1→9): 6/6
- Average Weight Change,g ([3]; 2.4 mg/kg/inj ip, qd 1→9): -3.1 g
- Effect MST % T/C ([3]; 2.4 mg/kg/inj ip, qd 1→9): 167 % T/C
- MST Days ([3]; 2.4 mg/kg/inj ip, qd 1→9): 10.0 days
- Survivors Day 5(30) ([3]; 2.4 mg/kg/inj ip, qd 1→9): 6/6
- Average Weight Change,g ([3]; 4 mg/kg/inj ip, d.1): -1.5 g
- Effect MST % T/C ([3]; 4 mg/kg/inj ip, d.1): 167 % T/C
- MST Days ([3]; 4 mg/kg/inj ip, d.1): 10.0 days
- Survivors Day 5(30) ([3]; 4 mg/kg/inj ip, d.1): 6/6
- Average Weight Change,g ([3]; 6 mg/kg/inj ip, d.1): -3.7 g
- Effect MST % T/C ([3]; 6 mg/kg/inj ip, d.1): 167 % T/C
- MST Days ([3]; 6 mg/kg/inj ip, d.1): 10.0 days
- Survivors Day 5(30) ([3]; 6 mg/kg/inj ip, d.1): 6/6
- Average Weight Change,g ([3]; 8 mg/kg/inj ip, d.1): -2.8 g
- Effect MST % T/C ([3]; 8 mg/kg/inj ip, d.1): 158 % T/C
- MST Days ([3]; 8 mg/kg/inj ip, d.1): 9.5 days
- Survivors Day 5(30) ([3]; 8 mg/kg/inj ip, d.1): 6/6
- Average Weight Change,g ([3]; 10 mg/kg/inj ip, d.1): -2.0 g
- Effect MST % T/C ([3]; 10 mg/kg/inj ip, d.1): 208 % T/C
- MST Days ([3]; 10 mg/kg/inj ip, d.1): 12.5 days
- Survivors Day 5(30) ([3]; 10 mg/kg/inj ip, d.1): 6/6
- maximum T/C ([3]; qd 1→9, 1.6 mg/kg/inj): 200%
- maximum T/C ([3]; single ip injections): 208%
- optimal doses ([3]; single ip injections, dose of maximum T/C): 10 mg/kg
- Av. Wt. Change,g Day 9 ([4]; 0.4 mg/kg/inj ip, qd 5→13): -0.4 g
- Effect MST %TC ([4]; 0.4 mg/kg/inj ip, qd 5→13): 124 %TC
- MST Days ([4]; 0.4 mg/kg/inj ip, qd 5→13): 15.5 days
- Av. Wt. Change,g Day 9 ([4]; 0.8 mg/kg/inj ip, qd 5→13): -0.6 g
- Effect MST %TC ([4]; 0.8 mg/kg/inj ip, qd 5→13): 136 %TC
- MST Days ([4]; 0.8 mg/kg/inj ip, qd 5→13): 17.0 days
- Av. Wt. Change,g Day 9 ([4]; 1.6 mg/kg/inj ip, qd 5→13): -1.8 g
- Effect MST %TC ([4]; 1.6 mg/kg/inj ip, qd 5→13): 184 %TC
- MST Days ([4]; 1.6 mg/kg/inj ip, qd 5→13): 23.0 days
- Av. Wt. Change,g Day 9 ([4]; 2 mg/kg/inj ip, d. 5, 9&13): +0.8 g
- Effect MST %TC ([4]; 2 mg/kg/inj ip, d. 5, 9&13): 152 %TC
- MST Days ([4]; 2 mg/kg/inj ip, d. 5, 9&13): 19.0 days
- Av. Wt. Change,g Day 9 ([4]; 2 mg/kg/inj iv, d. 5,9&13): +0.6 g
- Effect MST %TC ([4]; 2 mg/kg/inj iv, d. 5,9&13): 104 %TC
- MST Days ([4]; 2 mg/kg/inj iv, d. 5,9&13): 13.0 days
- Av. Wt. Change,g Day 9 ([4]; 2.4 mg/kg/inj ip, qd 5→13): -2.4 g
- Effect MST %TC ([4]; 2.4 mg/kg/inj ip, qd 5→13): 212 %TC
- MST Days ([4]; 2.4 mg/kg/inj ip, qd 5→13): 26.5 days
- Av. Wt. Change,g Day 9 ([4]; 4 mg/kg/inj ip, d. 5, 9&13): -0.3 g
- Effect MST %TC ([4]; 4 mg/kg/inj ip, d. 5, 9&13): 168 %TC
- MST Days ([4]; 4 mg/kg/inj ip, d. 5, 9&13): 21.0 days
- Av. Wt. Change,g Day 9 ([4]; 4 mg/kg/inj iv, d. 5,9&13): -0.7 g
- Effect MST %TC ([4]; 4 mg/kg/inj iv, d. 5,9&13): 120 %TC
- MST Days ([4]; 4 mg/kg/inj iv, d. 5,9&13): 15.0 days
- Av. Wt. Change,g Day 9 ([4]; 6 mg/kg/inj ip, d. 5, 9&13): -0.8 g
- Effect MST %TC ([4]; 6 mg/kg/inj ip, d. 5, 9&13): 220 %TC
- MST Days ([4]; 6 mg/kg/inj ip, d. 5, 9&13): 27.5 days
- Av. Wt. Change,g Day 9 ([4]; 6 mg/kg/inj iv, d. 5,9&13): -1.1 g
- Effect MST %TC ([4]; 6 mg/kg/inj iv, d. 5,9&13): 108 %TC
- MST Days ([4]; 6 mg/kg/inj iv, d. 5,9&13): 13.5 days
- Av. Wt. Change,g Day 9 ([4]; 8 mg/kg/inj ip, d. 5, 9&13): -2.7 g
- Effect MST %TC ([4]; 8 mg/kg/inj ip, d. 5, 9&13): 128 %TC
- MST Days ([4]; 8 mg/kg/inj ip, d. 5, 9&13): 16.0 days
- Av. Wt. Change,g Day 9 ([4]; 8 mg/kg/inj iv, d. 5,9&13): -0.7 g
- Effect MST %TC ([4]; 8 mg/kg/inj iv, d. 5,9&13): 112 %TC
- MST Days ([4]; 8 mg/kg/inj iv, d. 5,9&13): 14.0 days
- Survivors Day 9(48) ([4]; 0.4 mg/kg/inj ip, qd 5→13): 6/6
- Survivors Day 9(48) ([4]; 0.8 mg/kg/inj ip, qd 5→13): 5/6
- Survivors Day 9(48) ([4]; 1.6 mg/kg/inj ip, qd 5→13): 6/6
- Survivors Day 9(48) ([4]; 2 mg/kg/inj ip, d. 5, 9&13): 6/6
- Survivors Day 9(48) ([4]; 2 mg/kg/inj iv, d. 5,9&13): 6/6
- Survivors Day 9(48) ([4]; 2.4 mg/kg/inj ip, qd 5→13): 6/6
- Survivors Day 9(48) ([4]; 4 mg/kg/inj ip, d. 5, 9&13): 6/6
- Survivors Day 9(48) ([4]; 4 mg/kg/inj iv, d. 5,9&13): 6/6
- Survivors Day 9(48) ([4]; 6 mg/kg/inj ip, d. 5, 9&13): 6/6
- Survivors Day 9(48) ([4]; 6 mg/kg/inj iv, d. 5,9&13): 6/6
- Survivors Day 9(48) ([4]; 8 mg/kg/inj ip, d. 5, 9&13): 6/6
- Survivors Day 9(48) ([4]; 8 mg/kg/inj iv, d. 5,9&13): 6/6
- maximum T/C ([4]; given ip, therapy from day 5): 212-220%
- T/C ([4]; given iv, therapy from day 5): inactive
- Average Weight Change ([5]; 0.4 mg/kg/day ip): -2.0 g
- Effect MST % T/C ([5]; 0.4 mg/kg/day ip): 121 % T/C
- MST Days ([5]; 0.4 mg/kg/day ip): 25.0 days
- Average Weight Change ([5]; 0.8 mg/kg/day ip): -1.5 g
- Effect MST % T/C ([5]; 0.8 mg/kg/day ip): 139 % T/C
- MST Days ([5]; 0.8 mg/kg/day ip): 38.5 days
- Average Weight Change ([5]; 1.6 mg/kg/day ip): -2.7 g
- Effect MST % T/C ([5]; 1.6 mg/kg/day ip): 173 % T/C
- MST Days ([5]; 1.6 mg/kg/day ip): 35.5 days
- Survivors Day 10 (60) ([5]; 0.4 mg/kg/day ip): 8/10
- Survivors Day 10 (60) ([5]; 0.8 mg/kg/day ip): 10/10
- Survivors Day 10 (60) ([5]; 1.6 mg/kg/day ip): 10/10
- Av. Wt. Change, g Day 5 ([6]; 0.8 mg/kg/day ip): -1.0 g
- Effect MST % T/C ([6]; 0.8 mg/kg/day ip): 174 % T/C
- MST Days ([6]; 0.8 mg/kg/day ip): 34.0 days
- Av. Wt. Change, g Day 5 ([6]; 1.6 mg/kg/day ip): -4.3 g
- Effect MST % T/C ([6]; 1.6 mg/kg/day ip): 36 % T/C
- MST Days ([6]; 1.6 mg/kg/day ip): 7.0 days
- Av. Wt. Change, g Day 5 ([6]; 2.0 mg/kg/day ip): -4.5 g
- Effect MST % T/C ([6]; 2.0 mg/kg/day ip): 36 % T/C
- MST Days ([6]; 2.0 mg/kg/day ip): 7.0 days
- Survivors Day 5(60) ([6]; 0.8 mg/kg/day ip): 10/10
- Survivors Day 5(60) ([6]; 1.6 mg/kg/day ip): 9/9
- Survivors Day 5(60) ([6]; 2.0 mg/kg/day ip): 8/10
- mice cured ([6]; ip B16, at the dose of maximum T/C): no cures
- maximum T/C ([6]; ip B16, ip QD 1→9): 174%
